Assay results from ChEMBL document CHEMBL3885881, “DrugMatrix”.

Species: Rattus norvegicus
Test: DrugMatrix - Regimen: Daily Repeat
Type: toxicity, organism-based, Sprague-Dawley
Parameters: regimen Daily Repeat, gender Male, age 6-8 weeks
Details: in vivo, sc, route subcutaneous, […]; for ABSOLUTE BASOPHIL / ABSOLUTE EOSINOPHIL / ABSOLUTE LYMPHOCYTE / ABSOLUTE MONOCYTE / ABSOLUTE SEGMENTED NEUTROPHIL / BASOPHIL / EOSINOPHIL / ERYTHROCYTE COUNT / HEMATOCRIT / HEMOGLOBIN / LEUKOCYTE COUNT / LYMPHOCYTE / MEAN CORPUSCULAR HEMOGLOBIN / MEAN CORPUSCULAR HEMOGLOBIN CONCENTRATION / MEAN CORPUSCULAR VOLUME / MONOCYTE / NEUTROPHIL / NUCLEATED RED BLOOD CELLS / PLATELET COUNT: tissue Blood; for ALANINE AMINOTRANSFERASE / ALBUMIN / ALKALINE PHOSPHATASE / ASPARTATE AMINOTRANSFERASE / BLOOD UREA NITROGEN / CARBON DIOXIDE / CHLORIDE / CHOLESTEROL / CREATINE PHOSPHOKINASE / CREATININE / GLUCOSE / LACTATE DEHYDROGENASE / LIPASE / PHOSPHORUS / POTASSIUM / SODIUM / TOTAL BILIRUBIN / TOTAL PROTEIN / URIC ACID: tissue Plasma
[1] = 47.4 mg/kg, 72 h, dose level Low, time 3 day
[2] = 47.4 mg/kg, 120 h, dose level Low, time 5 day
[3] = 474 mg/kg, 72 h, dose level High, time 3 day
[4] = 474 mg/kg, 120 h, dose level High, time 5 day

O=C(O)C(Cl)(Cl)Cl [TRICHLOROACETIC ACID]
ABSOLUTE BASOPHIL [1]: 0 CELLS/uL
ABSOLUTE EOSINOPHIL [1]: 262.67 CELLS/uL
ABSOLUTE LYMPHOCYTE [1]: 11309 CELLS/uL
ABSOLUTE MONOCYTE [1]: 301 CELLS/uL
ABSOLUTE SEGMENTED NEUTROPHIL [1]: 1027.33 CELLS/uL
BASOPHIL [1]: 0%
EOSINOPHIL [1]: 2%
ERYTHROCYTE COUNT [1]: 5.38 x10E6/uL
HEMATOCRIT [1]: 34.53%
HEMOGLOBIN [1]: 12.9 G/DL
LEUKOCYTE COUNT [1]: 12.9 x10E3/uL
LYMPHOCYTE [1]: 87.67%
MEAN CORPUSCULAR HEMOGLOBIN [1]: 24.07 pg
MEAN CORPUSCULAR HEMOGLOBIN CONCENTRATION [1]: 37.33 G/DL
MEAN CORPUSCULAR VOLUME [1]: 64.37 fL
MONOCYTE [1]: 2.33%
NEUTROPHIL [1]: 8%
NUCLEATED RED BLOOD CELLS [1]: 0 /100WBC
PLATELET COUNT [1]: 1349.67 x10E3/uL
ALANINE AMINOTRANSFERASE [1]: 42.67 u/L
ALBUMIN [1]: 4.2 G/DL
ALKALINE PHOSPHATASE [1]: 412.67 u/L
ASPARTATE AMINOTRANSFERASE [1]: 83.33 u/L
BLOOD UREA NITROGEN [1]: 15.33 mg/dL
CARBON DIOXIDE [1]: 25.67 mmol/L
CHLORIDE [1]: 105.67 MEQ/L
CHOLESTEROL [1]: 63 mg/dL
CREATINE PHOSPHOKINASE [1]: 270.33 u/L
CREATININE [1]: 0.23 mg/dL
GLUCOSE [1]: 155.33 mg/dL
LACTATE DEHYDROGENASE [1]: 325.67 u/L
LIPASE [1]: 8.67 u/L
PHOSPHORUS [1]: 12.73 mg/dL
POTASSIUM [1]: 6.4 MEQ/L
SODIUM [1]: 146.37 MEQ/L
TOTAL BILIRUBIN [1]: 0.17 mg/dL
TOTAL PROTEIN [1]: 5.3 G/DL
URIC ACID [1]: 1.27 mg/dL
ABSOLUTE BASOPHIL [2]: 0 CELLS/uL
ABSOLUTE EOSINOPHIL [2]: 0 CELLS/uL
ABSOLUTE LYMPHOCYTE [2]: 12836 CELLS/uL
ABSOLUTE MONOCYTE [2]: 332 CELLS/uL
ABSOLUTE SEGMENTED NEUTROPHIL [2]: 898.67 CELLS/uL
BASOPHIL [2]: 0%
EOSINOPHIL [2]: 0%
ERYTHROCYTE COUNT [2]: 5.4 x10E6/uL
HEMATOCRIT [2]: 33.93%
HEMOGLOBIN [2]: 12.87 G/DL
LEUKOCYTE COUNT [2]: 14.07 x10E3/uL
LYMPHOCYTE [2]: 91.33%
MEAN CORPUSCULAR HEMOGLOBIN [2]: 23.87 pg
MEAN CORPUSCULAR HEMOGLOBIN CONCENTRATION [2]: 37.93 G/DL
MEAN CORPUSCULAR VOLUME [2]: 62.87 fL
MONOCYTE [2]: 2.33%
NEUTROPHIL [2]: 6.33%
NUCLEATED RED BLOOD CELLS [2]: 0 /100WBC
PLATELET COUNT [2]: 1378 x10E3/uL
ALANINE AMINOTRANSFERASE [2]: 40 u/L
ALBUMIN [2]: 4.2 G/DL
ALKALINE PHOSPHATASE [2]: 302.67 u/L
ASPARTATE AMINOTRANSFERASE [2]: 75.33 u/L
BLOOD UREA NITROGEN [2]: 20 mg/dL
CARBON DIOXIDE [2]: 28.33 mmol/L
CHLORIDE [2]: 105.67 MEQ/L
CHOLESTEROL [2]: 66.33 mg/dL
CREATINE PHOSPHOKINASE [2]: 164.33 u/L
CREATININE [2]: 0.19 mg/dL
GLUCOSE [2]: 166.33 mg/dL
LACTATE DEHYDROGENASE [2]: 114 u/L
LIPASE [2]: 8 u/L
PHOSPHORUS [2]: 13.1 mg/dL
POTASSIUM [2]: 6.29 MEQ/L
SODIUM [2]: 148.4 MEQ/L
TOTAL BILIRUBIN [2]: 0.17 mg/dL
TOTAL PROTEIN [2]: 5.63 G/DL
URIC ACID [2]: 1.6 mg/dL
ABSOLUTE BASOPHIL [3]: 0 CELLS/uL
ABSOLUTE EOSINOPHIL [3]: 47.33 CELLS/uL
ABSOLUTE LYMPHOCYTE [3]: 16441.33 CELLS/uL
ABSOLUTE MONOCYTE [3]: 452 CELLS/uL
ABSOLUTE SEGMENTED NEUTROPHIL [3]: 2492.67 CELLS/uL
BASOPHIL [3]: 0%
EOSINOPHIL [3]: 0.33%
ERYTHROCYTE COUNT [3]: 4.84 x10E6/uL
HEMATOCRIT [3]: 30.03%
HEMOGLOBIN [3]: 11.4 G/DL
LEUKOCYTE COUNT [3]: 19.43 x10E3/uL
LYMPHOCYTE [3]: 85%
MEAN CORPUSCULAR HEMOGLOBIN [3]: 23.57 pg
MEAN CORPUSCULAR HEMOGLOBIN CONCENTRATION [3]: 38.03 G/DL
MEAN CORPUSCULAR VOLUME [3]: 62.03 fL
MONOCYTE [3]: 2.33%
NEUTROPHIL [3]: 12.33%
NUCLEATED RED BLOOD CELLS [3]: 0.33 /100WBC
PLATELET COUNT [3]: 1335.33 x10E3/uL
ALANINE AMINOTRANSFERASE [3]: 56.33 u/L
ALBUMIN [3]: 3.77 G/DL
ALKALINE PHOSPHATASE [3]: 300.33 u/L
ASPARTATE AMINOTRANSFERASE [3]: 95 u/L
BLOOD UREA NITROGEN [3]: 18.33 mg/dL
CARBON DIOXIDE [3]: 24.33 mmol/L
CHLORIDE [3]: 105 MEQ/L
CHOLESTEROL [3]: 68.67 mg/dL
CREATINE PHOSPHOKINASE [3]: 418.33 u/L
CREATININE [3]: 0.19 mg/dL
GLUCOSE [3]: 142.67 mg/dL
LACTATE DEHYDROGENASE [3]: 520.33 u/L
LIPASE [3]: 7.67 u/L
PHOSPHORUS [3]: 12.23 mg/dL
POTASSIUM [3]: 6.31 MEQ/L
SODIUM [3]: 146.47 MEQ/L
TOTAL BILIRUBIN [3]: 0.2 mg/dL
TOTAL PROTEIN [3]: 5.27 G/DL
URIC ACID [3]: 1.37 mg/dL
ABSOLUTE BASOPHIL [4]: 0 CELLS/uL
ABSOLUTE EOSINOPHIL [4]: 102 CELLS/uL
ABSOLUTE LYMPHOCYTE [4]: 13327 CELLS/uL
ABSOLUTE MONOCYTE [4]: 456.67 CELLS/uL
ABSOLUTE SEGMENTED NEUTROPHIL [4]: 2747.67 CELLS/uL
BASOPHIL [4]: 0%
EOSINOPHIL [4]: 0.67%
ERYTHROCYTE COUNT [4]: 5.19 x10E6/uL
HEMATOCRIT [4]: 33.1%
HEMOGLOBIN [4]: 12.5 G/DL
LEUKOCYTE COUNT [4]: 16.63 x10E3/uL
LYMPHOCYTE [4]: 80%
MEAN CORPUSCULAR HEMOGLOBIN [4]: 24.07 pg
MEAN CORPUSCULAR HEMOGLOBIN CONCENTRATION [4]: 37.77 G/DL
MEAN CORPUSCULAR VOLUME [4]: 63.73 fL
MONOCYTE [4]: 2.67%
NEUTROPHIL [4]: 16.67%
NUCLEATED RED BLOOD CELLS [4]: 0 /100WBC
PLATELET COUNT [4]: 1546 x10E3/uL
ALANINE AMINOTRANSFERASE [4]: 55 u/L
ALBUMIN [4]: 3.33 G/DL
ALKALINE PHOSPHATASE [4]: 217 u/L
ASPARTATE AMINOTRANSFERASE [4]: 111.33 u/L
BLOOD UREA NITROGEN [4]: 13.67 mg/dL
CARBON DIOXIDE [4]: 23 mmol/L
CHLORIDE [4]: 109.33 MEQ/L
CHOLESTEROL [4]: 66 mg/dL
CREATINE PHOSPHOKINASE [4]: 1000 u/L
CREATININE [4]: 0.19 mg/dL
GLUCOSE [4]: 170 mg/dL
LACTATE DEHYDROGENASE [4]: 160 u/L
LIPASE [4]: 8 u/L
PHOSPHORUS [4]: 12.67 mg/dL
POTASSIUM [4]: 6.26 MEQ/L
SODIUM [4]: 147.7 MEQ/L
TOTAL BILIRUBIN [4]: 0.17 mg/dL
TOTAL PROTEIN [4]: 5.03 G/DL
URIC ACID [4]: 2.6 mg/dL
